Experiment: xn = mol fraction of the nth substance listed
Conditions: for electrical conductivity: frequency 0.03 MHz

CCCCCC[n+]1ccn(C)c1.[Br-] + OC[C@H]1O[C@@](CO)(O[C@H]2O[C@H](CO)[C@@H](O)[C@H](O)[C@H]2O)[C@@H](O)[C@@H]1O + O
viscosity [mPa·s], 100 kPa
Conditions | 288.15 K | 298.15 K | 308.15 K | 318.15 K
x2 = 0.0009263, x1 = 0.001797 | 1.271 | 0.986 | 0.785 | 0.651
x2 = 0.000945, x1 = 0.003588 | 1.33 | 1.022 | 0.827 | 0.683
x2 = 0.001856, x1 = 0.001795 | 1.334 | 1.034 | 0.826 | 0.681
x2 = 0.001901, x1 = 0.003584 | 1.403 | 1.07 | 0.87 | 0.711
x2 = 0.001946, x1 = 0.005366 | 1.495 | 1.142 | 0.891 | 0.74
x2 = 0.002732, x1 = 0.001794 | 1.394 | 1.074 | 0.859 | 0.711
x2 = 0.002803, x1 = 0.003581 | 1.468 | 1.123 | 0.904 | 0.74
x2 = 0.002858, x1 = 0.005362 | 1.568 | 1.191 | 0.949 | 0.78
x2 = 0.003653, x1 = 0.001792 | 1.453 | 1.124 | 0.897 | 0.735
x2 = 0.003711, x1 = 0.003578 | 1.538 | 1.173 | 0.941 | 0.775
x2 = 0.003775, x1 = 0.005357 | 1.637 | 1.245 | 0.99 | 0.807
x2 = 0.004453, x1 = 0.003575 | 1.596 | 1.222 | 0.975 | 0.805
x2 = 0.004552, x1 = 0.005352 | 1.699 | 1.293 | 1.023 | 0.834
x2 = 0.005421, x1 = 0.001789 | 1.601 | 1.229 | 0.975 | 0.793
x2 = 0.005541, x1 = 0.003571 | 1.672 | 1.287 | 1.018 | 0.835
x2 = 0.005596, x1 = 0.005347 | 1.794 | 1.365 | 1.078 | 0.875
x2 = 0.006166, x1 = 0.001788 | 1.649 | 1.272 | 1.01 | 0.82
x2 = 0.006277, x1 = 0.003569 | 1.745 | 1.342 | 1.061 | 0.868
x2 = 0.006372, x1 = 0.005343 | 1.862 | 1.416 | 1.114 | 0.906
x2 = 0.007317, x1 = 0.001786 | 1.761 | 1.347 | 1.059 | 0.863
x2 = 0.007401, x1 = 0.005337 | 1.984 | 1.498 | 1.184 | 0.952
x2 = 0.007611, x1 = 0.003564 | 1.874 | 1.438 | 1.13 | 0.917
x2 = 0.00788, x1 = 0.001785 | 1.826 | 1.395 | 1.088 | 0.894
x2 = 0.008047, x1 = 0.003562 | 1.908 | 1.463 | 1.152 | 0.928
x2 = 0.008846, x1 = 0.005329 | 2.121 | 1.595 | 1.25 | 1.009

CCCCCC[n+]1ccn(C)c1.[I-] + [I-].[Li+]
101 kPa
Conditions | electrical conductivity [S/m] | viscosity [mPa·s]
288.1 K, x1 = 0.59 | 0.000226 | –
293 K, x1 = 0.59 | 0.000466 | –
298.1 K, x1 = 0.59 | 0.000891 | 15200
303 K, x1 = 1 | – | 1175
308.1 K, x1 = 0.59 | 0.0032 | 4263
313 K, x1 = 0.59 | 0.00537 | –
318.1 K, x1 = 0.59 | 0.00863 | –
328.1 K, x1 = 1 | – | 213
368.1 K, x1 = 1 | – | 38.5
